Here are results for 14 compounds from ChEMBL document CHEMBL3259702, “Discovery of GS-9973, a selective and orally efficacious inhibitor of spleen tyrosine kinase” (J Med Chem, 2014).

Series [1] can be described thus: Oral bioavailability in Sprague-Dawley rat at 10 mg/kg. Format: ADME, organism-based. The conditions noted are these: in vivo.
Series [2] is described as follows: Lipophilicity, change in log P of the compound. The settings on record: octanol/water.
Series [3] is described as follows: Clearance in Sprague-Dawley rat at 10 mg/kg, po. In kind it is ADME, organism-based. More on the design: dose 10 mg/kg, route oral. The settings on record: in vivo.
The nature of series [4]: Clearance in human liver microsomes at 3 uM by LC/MS/MS analysis. Format: ADME. On the technique in general: Microsomes from liver hold many membrane-bound enzymes, among them those of drug oxidation.
For series [5], the target named is T1, Tyrosine-protein kinase SYK (Homo sapiens, UniProt P43405).
Description: Inhibition of full length Syk (unknown origin) using biotinylated peptide substrate
The target in series [6] is T1, Tyrosine-protein kinase SYK. The source holds these as a separate data set.
Description: Inhibition of Syk in antihuman IgM-stimulated human Ramos cells assessed as decrease in BCR-mediated BLNK phosphorylation by cellular assay
Series [7] has the same target. This is another data set of the same source.
Description: Inhibition of Syk in goat antihuman IgE-induced CD63 expression in human whole blood by FACS analysis
A further series has as its target Cytochrome P450 2C19 (Homo sapiens, UniProt P33261). In words: Inhibition of CYP2C19 (unknown origin). In kind it is ADME.
In series [8] the test system is Rattus norvegicus. The series is described as follows: Antiinflammatory activity in po dosed Lewis rat collagen-induced arthritis model assessed as disease parameter measured as body weight treated twice daily on arthritic days 0 to 7.
Series [9] can be described thus: Unbound fraction in human plasma. Format: ADME, cell-free.
The nature of series [10]: Plasma protein binding in non-naive beagle dog at 1 mg/kg, po after 24 hrs by LC-MS/MS analysis. Set-up: dose 1 mg/kg, route oral. In kind it is ADME, organism-based, Canis lupus familiaris. The conditions noted are these: read-out: PPB (converted).
Series [11] addresses Proto-oncogene tyrosine-protein kinase receptor Ret (Homo sapiens, UniProt P07949). The series is described as follows: Inhibition of Ret in human […] cells assessed as assessed as phosphorylation after 1 hr incubation. Format: cell-based.
Series [12] is described as follows: Volume of distribution at steady state in Sprague-Dawley rat at 0.4 mg/kg, iv. Format: ADME, organism-based. Set-up: dose 0.4 mg/kg, route intravenous. The conditions noted are these: in vivo, read-out: Vdss.
Series [13] addresses Tyrosine-protein kinase SYK (Rattus norvegicus, UniProt Q64725). In words: In vitro inhibition of Syk phosphorylation in rat whole blood. Format: tissue-based.
For series [14], the system named is Rattus norvegicus. In words: Antiinflammatory activity in po dosed Lewis rat collagen-induced arthritis model assessed as disease parameter measured as peritosteal bone width treated twice daily on arthritic days 0 to 7 by histological analysis.
Series [15] can be described thus: Volume of distribution at steady state in non-naive beagle dog at 0.4 mg/kg, iv. More on the design: dose 0.4 mg/kg, route intravenous. The settings on record: in vivo, read-out: Vdss. Format: ADME, organism-based, Canis lupus familiaris.
The nature of series [16]: Oral bioavailability in non-naive beagle dog at 1 mg/kg. In kind it is ADME, organism-based, Canis lupus familiaris. The settings on record: in vivo.
Series [17] can be described thus: Clearance in non-naive beagle dog at 0.4 mg/kg, iv. More on the design: dose 0.4 mg/kg, route intravenous. The settings on record: in vivo. In kind it is ADME, organism-based, Canis lupus familiaris.
Series [18] can be described thus: Apparent permeability from apical to basolateral side in human Caco2 cells at 5 uM. In kind it is ADME, cell-based. The conditions noted are these: Caco-2. A general note: Caco-2 monolayers are a common model of the intestinal barrier.
In another series the target is T2, Cytochrome P450 1A2 (Homo sapiens, UniProt P05177).
T2 sequence (P05177 whole entry): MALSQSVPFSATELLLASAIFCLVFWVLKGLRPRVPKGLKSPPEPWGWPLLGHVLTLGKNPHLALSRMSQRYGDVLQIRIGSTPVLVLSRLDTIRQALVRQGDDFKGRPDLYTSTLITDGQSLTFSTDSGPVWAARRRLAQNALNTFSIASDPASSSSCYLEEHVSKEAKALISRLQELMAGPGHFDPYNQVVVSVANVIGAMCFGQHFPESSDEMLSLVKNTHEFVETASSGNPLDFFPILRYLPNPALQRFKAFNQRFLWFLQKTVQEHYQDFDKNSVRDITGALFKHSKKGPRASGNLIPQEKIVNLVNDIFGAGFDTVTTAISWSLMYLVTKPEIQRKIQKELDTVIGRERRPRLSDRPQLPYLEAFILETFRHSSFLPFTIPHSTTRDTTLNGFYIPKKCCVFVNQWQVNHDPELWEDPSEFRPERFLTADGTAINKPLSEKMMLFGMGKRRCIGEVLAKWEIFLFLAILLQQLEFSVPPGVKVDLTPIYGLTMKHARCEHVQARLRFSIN
In words: Inhibition of CYP1A2 (unknown origin). In kind it is ADME.

Series [19] can be described thus: Half life in dog liver microsomes at 3 uM by LC/MS/MS analysis. In kind it is ADME, Canis lupus familiaris.
A short description of series [20]: Half life in human liver microsomes at 3 uM by LC/MS/MS analysis. Format: ADME.
The target of the next series is Cytochrome P450 2C9 (Homo sapiens, UniProt P11712). The series is described as follows: Inhibition of CYP2C9 (unknown origin). Format: ADME.
In series [21] the test system is Rattus norvegicus. In words: Antiinflammatory activity in po dosed Lewis rat collagen-induced arthritis model assessed as disease parameter measured as knee inflammation treated twice daily on arthritic days 0 to 7 by histological analysis.
Series [22] is described as follows: Plasma protein binding in human at 1 mg/kg, po after 24 hrs by LC-MS/MS analysis. The settings on record: read-out: PPB (converted). In kind it is ADME, organism-based. Set-up: dose 1 mg/kg, route oral.
A short description of series [23]: Solubility of the compound in crystalline form in simulated intestinal fluid under fasted condition. In kind it is physicochemical.
Series [24] in a line: Oral bioavailability in Sprague-Dawley rat at 1 mg/kg. Format: ADME, organism-based. The settings on record: in vivo.
Series [25] in a line: Clearance in Sprague-Dawley rat at 0.4 mg/kg, iv. The settings on record: in vivo. Format: ADME, organism-based. More on the design: dose 0.4 mg/kg, route intravenous.
Series [26] is described as follows: Plasma protein binding in Sprague-Dawley rat at 1 mg/kg, po after 24 hrs by LC-MS/MS analysis. In kind it is ADME, organism-based. Set-up: dose 1 mg/kg, route oral. The conditions noted are these: read-out: PPB (converted).
A short description of series [27]: Apparent permeability from basolateral to apical side in human Caco2 cells at 5 uM. Format: ADME, cell-based. The conditions noted are these: Caco-2.
For series [28], the system named is Rattus norvegicus. In words: Antiinflammatory activity in po dosed Lewis rat collagen-induced arthritis model assessed as disease parameter measured as ankle diameter treated twice daily on arthritic days 0 to 7.
The target in another series is Cytochrome P450 2D6 (Homo sapiens, UniProt P10635). In words: Inhibition of CYP2D6 (unknown origin). Format: ADME.
Cytochrome P450 2D6, sequence (P10635 whole entry): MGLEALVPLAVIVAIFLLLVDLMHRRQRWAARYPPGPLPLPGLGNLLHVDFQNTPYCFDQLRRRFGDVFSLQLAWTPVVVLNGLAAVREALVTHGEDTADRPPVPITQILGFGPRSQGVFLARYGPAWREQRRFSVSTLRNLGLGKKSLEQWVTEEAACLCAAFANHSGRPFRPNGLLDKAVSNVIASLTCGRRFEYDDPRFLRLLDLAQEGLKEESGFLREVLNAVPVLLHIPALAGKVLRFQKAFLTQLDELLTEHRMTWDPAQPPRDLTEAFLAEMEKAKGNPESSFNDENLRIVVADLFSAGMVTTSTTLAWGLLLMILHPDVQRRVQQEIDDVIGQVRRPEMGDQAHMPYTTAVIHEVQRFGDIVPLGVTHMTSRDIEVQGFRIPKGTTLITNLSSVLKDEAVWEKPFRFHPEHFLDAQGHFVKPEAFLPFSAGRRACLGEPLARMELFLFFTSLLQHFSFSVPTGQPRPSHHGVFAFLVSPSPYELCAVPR
For series [29], the target named is Mast/stem cell growth factor receptor Kit (Mus musculus, UniProt P05532). The series is described as follows: Inhibition of cKit in stem cell factor-stimulated bone marrow derived mouse mast cells assessed as phosphorylation after 1 hr incubation.
Mast/stem cell growth factor receptor Kit, sequence (P05532 whole entry): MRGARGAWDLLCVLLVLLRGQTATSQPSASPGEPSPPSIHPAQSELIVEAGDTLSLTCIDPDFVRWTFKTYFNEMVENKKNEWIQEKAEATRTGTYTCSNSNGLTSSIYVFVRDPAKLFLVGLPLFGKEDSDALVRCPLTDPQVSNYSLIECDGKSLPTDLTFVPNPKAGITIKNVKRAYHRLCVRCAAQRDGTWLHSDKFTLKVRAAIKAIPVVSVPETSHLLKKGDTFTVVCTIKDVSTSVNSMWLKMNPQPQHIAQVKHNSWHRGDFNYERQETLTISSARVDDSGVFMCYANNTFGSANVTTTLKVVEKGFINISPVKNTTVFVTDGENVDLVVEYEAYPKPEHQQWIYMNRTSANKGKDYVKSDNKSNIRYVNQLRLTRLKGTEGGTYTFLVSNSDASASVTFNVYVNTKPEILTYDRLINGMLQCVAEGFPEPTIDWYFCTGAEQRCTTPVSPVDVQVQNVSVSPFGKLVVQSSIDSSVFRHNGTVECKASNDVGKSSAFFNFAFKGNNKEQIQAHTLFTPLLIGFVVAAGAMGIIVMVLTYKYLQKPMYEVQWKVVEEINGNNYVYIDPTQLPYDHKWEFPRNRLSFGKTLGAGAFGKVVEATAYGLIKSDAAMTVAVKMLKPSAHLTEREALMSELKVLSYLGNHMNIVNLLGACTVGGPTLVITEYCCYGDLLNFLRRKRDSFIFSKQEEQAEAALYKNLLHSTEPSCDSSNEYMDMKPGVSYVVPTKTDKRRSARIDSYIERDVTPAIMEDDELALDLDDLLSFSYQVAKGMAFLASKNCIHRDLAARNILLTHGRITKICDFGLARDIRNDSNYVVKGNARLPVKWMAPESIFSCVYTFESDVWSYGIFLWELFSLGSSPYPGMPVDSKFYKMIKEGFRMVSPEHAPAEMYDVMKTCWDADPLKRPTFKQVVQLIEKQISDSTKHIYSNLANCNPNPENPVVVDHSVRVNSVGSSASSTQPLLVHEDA
In series [30] the target is Tyrosine-protein kinase JAK2 (Homo sapiens, UniProt O60674). In words: Inhibition of Jak2 in erythropoietin-stimulated human TF1 cells assessed as assessed as phospho-Stat5 after 1 hr incubation. Format: cell-based, TF-1.
Tyrosine-protein kinase JAK2, sequence (O60674 whole entry): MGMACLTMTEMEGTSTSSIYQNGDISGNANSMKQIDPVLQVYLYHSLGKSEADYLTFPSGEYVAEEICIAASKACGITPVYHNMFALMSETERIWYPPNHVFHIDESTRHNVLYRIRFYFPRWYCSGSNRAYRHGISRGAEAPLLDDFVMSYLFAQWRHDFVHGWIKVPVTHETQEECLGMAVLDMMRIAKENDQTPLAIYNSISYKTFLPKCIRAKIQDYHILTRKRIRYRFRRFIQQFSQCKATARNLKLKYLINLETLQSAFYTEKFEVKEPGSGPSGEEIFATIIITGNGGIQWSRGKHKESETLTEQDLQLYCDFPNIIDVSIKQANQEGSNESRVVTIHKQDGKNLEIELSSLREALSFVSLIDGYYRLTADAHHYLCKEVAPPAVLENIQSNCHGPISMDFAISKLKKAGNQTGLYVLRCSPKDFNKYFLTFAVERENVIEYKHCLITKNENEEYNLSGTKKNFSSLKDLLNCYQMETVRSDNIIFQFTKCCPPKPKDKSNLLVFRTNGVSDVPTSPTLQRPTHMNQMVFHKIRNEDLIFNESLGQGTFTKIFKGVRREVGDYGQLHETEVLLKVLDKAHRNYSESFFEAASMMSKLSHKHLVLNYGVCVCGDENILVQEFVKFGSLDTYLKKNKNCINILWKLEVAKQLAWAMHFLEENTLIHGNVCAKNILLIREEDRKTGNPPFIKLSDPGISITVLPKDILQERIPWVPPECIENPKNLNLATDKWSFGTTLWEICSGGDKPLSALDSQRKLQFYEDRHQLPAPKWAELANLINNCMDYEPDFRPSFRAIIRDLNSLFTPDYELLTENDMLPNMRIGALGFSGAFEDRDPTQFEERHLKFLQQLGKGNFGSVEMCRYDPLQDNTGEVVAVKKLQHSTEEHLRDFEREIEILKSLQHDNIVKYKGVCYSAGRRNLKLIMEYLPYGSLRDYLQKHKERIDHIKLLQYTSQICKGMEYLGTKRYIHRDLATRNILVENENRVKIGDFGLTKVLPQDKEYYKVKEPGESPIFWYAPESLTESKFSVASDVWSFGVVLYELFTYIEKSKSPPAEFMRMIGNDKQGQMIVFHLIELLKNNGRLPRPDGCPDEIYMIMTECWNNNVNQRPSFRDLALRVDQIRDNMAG
Series [31] addresses Vascular endothelial growth factor receptor 2 (Homo sapiens, UniProt P35968). The series is described as follows: Inhibition of KDR in VEGF-stimulated HUVEC assessed as phosphorylation after 1 hr incubation.
Series [32] deals with Rattus norvegicus. In words: Antiinflammatory activity in po dosed Lewis rat collagen-induced arthritis model assessed as disease parameter measured as ankle inflammation treated twice daily on arthritic days 0 to 7 by histological analysis.
The nature of series [33]: Solubility of the compound in crystalline form in simulated intestinal fluid under fed condition. Format: physicochemical.
The nature of series [34]: Half life in rat liver microsomes at 3 uM by LC/MS/MS analysis. In kind it is ADME.

≈ marks a conversion by molar mass, not a printed value.

Cytochrome P450 2C19, sequence (P33261 whole entry): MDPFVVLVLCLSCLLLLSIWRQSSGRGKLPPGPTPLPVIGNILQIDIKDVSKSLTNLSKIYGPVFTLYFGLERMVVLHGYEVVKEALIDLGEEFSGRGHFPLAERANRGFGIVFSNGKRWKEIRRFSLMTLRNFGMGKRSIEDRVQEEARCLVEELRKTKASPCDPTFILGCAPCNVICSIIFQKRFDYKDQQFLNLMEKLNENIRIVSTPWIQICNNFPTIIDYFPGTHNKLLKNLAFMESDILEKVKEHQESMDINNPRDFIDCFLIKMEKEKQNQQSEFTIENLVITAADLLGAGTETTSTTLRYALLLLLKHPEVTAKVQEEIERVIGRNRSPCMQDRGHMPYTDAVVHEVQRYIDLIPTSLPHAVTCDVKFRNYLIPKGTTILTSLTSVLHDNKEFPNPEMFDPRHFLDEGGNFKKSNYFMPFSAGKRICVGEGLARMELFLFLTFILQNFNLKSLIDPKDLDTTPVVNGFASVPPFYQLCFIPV
Tyrosine-protein kinase SYK (Rattus norvegicus, UniProt Q64725), sequence (Q64725 whole entry): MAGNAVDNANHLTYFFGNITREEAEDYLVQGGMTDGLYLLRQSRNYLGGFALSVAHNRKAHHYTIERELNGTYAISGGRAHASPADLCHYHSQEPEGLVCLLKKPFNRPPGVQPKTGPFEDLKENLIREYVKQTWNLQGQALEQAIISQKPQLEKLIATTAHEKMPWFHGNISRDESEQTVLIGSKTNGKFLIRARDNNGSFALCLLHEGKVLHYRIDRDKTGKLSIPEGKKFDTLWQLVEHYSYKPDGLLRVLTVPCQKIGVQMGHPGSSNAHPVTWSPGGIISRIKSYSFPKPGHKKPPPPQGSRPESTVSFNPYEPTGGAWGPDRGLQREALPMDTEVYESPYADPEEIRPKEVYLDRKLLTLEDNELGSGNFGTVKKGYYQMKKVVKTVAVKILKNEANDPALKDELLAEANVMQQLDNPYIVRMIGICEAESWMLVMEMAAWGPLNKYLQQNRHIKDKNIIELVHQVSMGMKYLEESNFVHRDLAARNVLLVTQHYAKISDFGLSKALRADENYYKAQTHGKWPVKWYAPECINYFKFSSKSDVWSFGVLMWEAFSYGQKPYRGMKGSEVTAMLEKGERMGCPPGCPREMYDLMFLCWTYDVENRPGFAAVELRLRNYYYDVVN
Proto-oncogene tyrosine-protein kinase receptor Ret, sequence (P07949 whole entry): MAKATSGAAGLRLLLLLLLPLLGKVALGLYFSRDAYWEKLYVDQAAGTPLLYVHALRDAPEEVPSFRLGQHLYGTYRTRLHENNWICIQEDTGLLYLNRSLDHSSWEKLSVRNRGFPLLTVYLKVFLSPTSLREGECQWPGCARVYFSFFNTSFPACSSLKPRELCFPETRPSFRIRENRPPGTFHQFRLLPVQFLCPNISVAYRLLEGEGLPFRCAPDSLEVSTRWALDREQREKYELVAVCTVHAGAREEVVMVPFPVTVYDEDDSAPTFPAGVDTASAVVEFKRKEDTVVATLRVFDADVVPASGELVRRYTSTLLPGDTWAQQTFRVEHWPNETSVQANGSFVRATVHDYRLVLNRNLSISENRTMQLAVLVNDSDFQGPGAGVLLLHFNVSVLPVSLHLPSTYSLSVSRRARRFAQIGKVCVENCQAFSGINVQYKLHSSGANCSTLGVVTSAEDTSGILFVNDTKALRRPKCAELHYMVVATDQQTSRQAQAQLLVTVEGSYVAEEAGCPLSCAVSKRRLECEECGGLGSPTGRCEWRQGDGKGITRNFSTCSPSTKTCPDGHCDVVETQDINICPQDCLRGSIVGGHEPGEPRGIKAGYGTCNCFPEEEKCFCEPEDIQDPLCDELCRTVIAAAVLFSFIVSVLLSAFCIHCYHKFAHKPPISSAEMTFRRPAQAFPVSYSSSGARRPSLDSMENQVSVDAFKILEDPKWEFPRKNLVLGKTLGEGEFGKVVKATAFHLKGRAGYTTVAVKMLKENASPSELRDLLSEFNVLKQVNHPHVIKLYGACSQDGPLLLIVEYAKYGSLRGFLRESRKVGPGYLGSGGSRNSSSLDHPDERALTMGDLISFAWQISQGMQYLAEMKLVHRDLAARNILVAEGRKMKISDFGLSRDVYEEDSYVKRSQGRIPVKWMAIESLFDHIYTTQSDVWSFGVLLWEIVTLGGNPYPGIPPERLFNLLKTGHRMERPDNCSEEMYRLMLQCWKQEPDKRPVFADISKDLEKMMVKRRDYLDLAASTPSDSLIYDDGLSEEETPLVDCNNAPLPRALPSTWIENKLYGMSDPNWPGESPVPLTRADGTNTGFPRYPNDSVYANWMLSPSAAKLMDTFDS

Broadly, the bioavailability is dose-corrected exposure relative to a reference, in per cent. Low values mean little systemic uptake, high ones much systemic uptake. As a reminder, the CL/F is the apparent clearance, not corrected for the fraction that reaches the circulation. In turn, `COc1ccc(Nc2nc(-c3ccc(C(N)=O)cc3)cn3ccnc23)cc1OC` had a bioavailability in [1] of 22%. In [2], the ΔlogP was 1.4. The compound also had a CL/F in series [3] of 50.8 mL/min/kg.
The compound `COc1ccc(Nc2nc(-c3cccc(C(N)=O)c3)cn3ccnc23)cc1OC` yielded a ΔlogP in [2] of 1.4.
In the case of `COc1ccc(Nc2nc(-c3ccc4cn[nH]c4c3)cn3ccnc23)cc1OC`, in [1], the bioavailability amounted to 36%. This compound also had an apparent clearance CL/F in series [3] of 35 mL/min/kg.
For `c1ccc(Nc2nc(-c3ccc4cn[nH]c4c3)cn3ccnc23)cc1`, the CLhep predicted at 3 µM in [4] is 8.17 mL/min/kg.
By IC50 is commonly meant the concentration that inhibits the measured activity by half. Usually EC50 stands for the midpoint of the concentration-response curve. For the compound `COc1cccc(Nc2nc(-c3ccc4cn[nH]c4c3)cn3ccnc23)c1`, the 50% inhibitory concentration (IC50) in series [5] is 8.5 nM. This compound also gave an EC50 in [6] of 374 nM.
`CC1(O)CN(c2ccc(Nc3nc(-c4ccc5cn[nH]c5c4)cn4ccnc34)cc2)C1` yielded a concentration for half-maximal inhibition (IC50) in series [5] of 3.9 nM. The figures for the concentration giving a half-maximal response (EC50) in [7] and in series [6] were 1260 nM and 80 nM, respectively.
As to `CC1(O)CCN(c2ccc(Nc3nc(-c4ccc5cn[nH]c5c4)cn4ccnc34)cc2)CC1`, the CLhep predicted at 3 µM in series [4] was 4.5 mL/min/kg.
In series [5], `O=S1(=O)CCN(c2ccc(Nc3nc(-c4ccc5cn[nH]c5c4)cn4ccnc34)cc2)CC1` came in with a 50% inhibitory concentration (IC50) of 2.1 nM. Moreover, the CLhep predicted at 3 µM in series [4] is 10 mL/min/kg. The EC50 in series [7] is > 10000 nM; in series [6], 40 nM.
On the same counts, the results for `c1cn2cc(-c3ccc4cn[nH]c4c3)nc(Nc3ccc(C4CCOCC4)cc3)c2n1` are 3.8 nM, 2 mL/min/kg, > 10000 nM and 2370 nM.
For `CN(CCO)c1ccc(Nc2nc(-c3ccc4cn[nH]c4c3)cn3ccnc23)cc1`, the IC50 in series [5] worked out at 7.6 nM. The EC50 came out at 1090 nM in series [7] and 42 nM in series [6].
Consider `c1cn2cc(-c3ccc4cn[nH]c4c3)nc(Nc3ccc(N4CCCOCC4)cc3)c2n1`, for which half-maximal inhibition in series [5] (IC50) was put at 23.1 nM. Besides, the CLhep predicted at 3 µM in series [4] is 5 mL/min/kg. Moreover, it took 73 nM to reach a half-maximal effect in [6] (EC50).
Turning to `COc1cc(Nc2nc(-c3ccc4cn[nH]c4c3)cn3ccnc23)ccc1N1CCOCC1`, the CLhep predicted at 3 µM in [4] was 12.5 mL/min/kg.
In general, ED50 refers to the dose at which the effect has come halfway, by size or by number of responders. Usually clearance stands for the volume of plasma or blood freed of the substance per unit of time. A higher clearance goes with a high capacity for elimination. The term Papp A→B denotes the apparent permeability from the apical to the basolateral side of a cell layer. As a reminder, the half-life is the time needed for the level to fall by half in the phase considered. Low readings indicate rapid decline, high ones slow decline. The term solubility denotes the dissolved amount per volume that the medium holds. The low end stands for little dissolved substance, the high end for much dissolved substance. As a reminder, the Papp B→A is the apparent permeability from the basolateral to the apical side of a cell layer. `c1cn2cc(-c3ccc4cn[nH]c4c3)nc(Nc3ccc(N4CCOCC4)cc3)c2n1` [ENTOSPLETINIB]: the IC50 at Cytochrome P450 2C19, against Cytochrome P450 1A2, on Cytochrome P450 2C9 and against Cytochrome P450 2D6 was > 10000 nM in each case. Further, the 50% effective dose (ED50) was found to be 3.9 mg/kg in the series on Rattus norvegicus [8]; 3 mg/kg with Rattus norvegicus [14]; 1.2 mg/kg in the series with Rattus norvegicus [21]; 2.1 mg/kg in the series on Rattus norvegicus [28]; 2.8 mg/kg in the series on Rattus norvegicus [32]. Besides, the fraction unbound in [9] amounted to 0.027. For the same compound, the fraction unbound at 24 h in series [10] is 0.072; in series [22], 0.029; in [26] it was 0.008. The concentration for a half-maximal effect (EC50) in series [11] is > 1000 nM; in [13], 1900 nM; in series [29], 445 nM; in [30], 453 nM; in series [31], > 1000 nM. For the same compound, the Vd in series [12] stood at 0.52 L/kg; in [15] it was 1.41 L/kg. Moreover, the bioavailability in series [16] was determined as 53%; in series [24], 67%. For the same compound, the clearance in series [17] is 13.3 mL/min/kg; in series [25], 4.5 mL/min/kg. Further, in series [18], the apical-to-basolateral permeability (Papp A→B) at 5 µM was found to be 3.2 ×10⁻⁶ cm/s. The half-life at 3 µM turned out to be 23.4 min in series [19], 98.6 min in [20] and 35 min in series [34]. The solubility in series [23] was 2 µM (≈ 0.823 µg/mL); in series [33] it was 16 µM (≈ 6.58 µg/mL). Besides, the Papp B→A at 5 µM in series [27] amounted to 1.95 ×10⁻⁶ cm/s. Besides, in series [4], the CLhep predicted at 3 µM was 4.83 mL/min/kg.
As for `COc1cc(Nc2ncc(F)c(Nc3ccc4c(n3)NC(=O)C(C)(C)O4)n2)cc(OC)c1OC` [R-406], the EC50 in [29] was 46 nM.
